Experimental data reported in ChEMBL document CHEMBL1127198, “Identification of antibody mimotopes containing non-natural amino acids by recombinant and synthetic peptide library affinity selection methods” (Bioorg Med Chem Lett, 1993).

Assays:
[1] = Binding inhibitory activity of compound was evaluated against bacteriophage anti-gp120 monoclonal antibody by competition ELISA assay
[2] = Loss of affinity of compound was determined for bacteriophage anti-gp120 monoclonal antibody by competition ELISA assay; 3 fold loss in affinity was observed
[3] = Loss of affinity of compound was determined for bacteriophage anti-gp120 monoclonal antibody by competition ELISA assay; 16 fold loss in affinity was observed
[4] = Loss of affinity of compound was determined for bacteriophage anti-gp120 monoclonal antibody by competition ELISA assay; 10 fold loss in affinity was observed

Substance	IC50 [1] [µM]	Loss of affinity [2]	Loss of affinity [3]	Loss of affinity [4]
H-ESTAPM-OH	10	–	16	–
H-EATRPM-OH	6.3	–	–	10
H-ESTRPA-OH	10	–	16	–

More lines, now with the values ahead:

IC50 [1] [µM]	Loss of affinity [2]	Loss of affinity [3]	Loss of affinity [4]	Substance
0.63	–	–	–	H-ESTRPM-OH
1.8	3	–	–	H-ASTRPM-OH
6.3	–	–	10	H-ESARPM-OH
0.63	–	–	–	H-ESTRAM-OH
